Results taken from patent US7880007B2, “Bicyclic substituted phenyl piperidine modulators of muscarinic receptors” (Vertex Pharmaceuticals Incorporated, priority 2004, dated 2011).

Legend:
Assay type in all cases: cell-based
M1 muscarinic receptor = molecular target: T1, M1 muscarinic receptor (Homo sapiens, UniProt P11229); experiment: Functional mobilization of intracellular calcium (FLIPR), M1-CHO cells; conditions: for Emax: 100% efficacy = maximum response obtained with the Carbachol control; for M1 Activity: M1-CHO cells, calcium mobilization (FLIPR)
T1 construct: expressed in transfected cells; host or cells: CHO (M1-CHO)
T1 sequence (P11229 1-460): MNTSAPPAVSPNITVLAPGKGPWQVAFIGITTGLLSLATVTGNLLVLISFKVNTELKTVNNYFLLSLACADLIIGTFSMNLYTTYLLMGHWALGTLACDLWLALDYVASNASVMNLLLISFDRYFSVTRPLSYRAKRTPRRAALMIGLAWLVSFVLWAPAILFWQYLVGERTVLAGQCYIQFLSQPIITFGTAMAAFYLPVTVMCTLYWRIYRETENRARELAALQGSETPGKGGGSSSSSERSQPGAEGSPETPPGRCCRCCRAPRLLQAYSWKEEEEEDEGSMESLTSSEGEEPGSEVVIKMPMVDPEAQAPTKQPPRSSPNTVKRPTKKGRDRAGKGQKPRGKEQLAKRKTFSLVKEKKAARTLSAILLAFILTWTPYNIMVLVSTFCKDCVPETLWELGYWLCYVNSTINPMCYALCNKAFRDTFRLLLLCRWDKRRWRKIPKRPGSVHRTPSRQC
Summary of the method: (§1)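 FLIPR fluorescence (ex 488, em 540 nm) recorded 60 sec after compound addition to dye-loaded CHO cells. Agonist mode: compound alone. Antagonist mode: 15 min compound pre-incubation, then carbachol at EC80, or co-application. Efficacy expressed as % of maximal carbachol response.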

M2 muscarinic receptor = molecular target: T2, M2 muscarinic receptor (Homo sapiens, UniProt P08172); experiment: Functional mobilization of intracellular calcium (FLIPR), M2-CHO cells; conditions: for Emax: 100% efficacy = maximum response obtained with the Carbachol control; for M2 Activity: M2-CHO cells, calcium mobilization (FLIPR)
T2 construct: expressed in transfected cells; host or cells: CHO (M2-CHO)
T2 sequence (P08172 1-466): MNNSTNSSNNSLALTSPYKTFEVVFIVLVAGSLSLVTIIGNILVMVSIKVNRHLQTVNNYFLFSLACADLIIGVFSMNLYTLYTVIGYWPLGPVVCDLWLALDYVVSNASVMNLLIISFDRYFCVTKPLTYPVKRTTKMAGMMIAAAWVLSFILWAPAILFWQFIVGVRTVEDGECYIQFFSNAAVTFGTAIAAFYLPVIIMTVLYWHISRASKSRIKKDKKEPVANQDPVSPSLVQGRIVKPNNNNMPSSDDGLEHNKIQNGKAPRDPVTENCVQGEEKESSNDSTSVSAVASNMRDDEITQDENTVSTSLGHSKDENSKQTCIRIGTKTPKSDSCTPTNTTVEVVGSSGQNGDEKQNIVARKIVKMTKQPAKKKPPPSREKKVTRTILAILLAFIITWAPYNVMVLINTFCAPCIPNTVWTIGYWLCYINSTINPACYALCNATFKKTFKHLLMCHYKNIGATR
Summary of the method: as §1

M3 muscarinic receptor = molecular target: T3, M3 muscarinic receptor (Homo sapiens, UniProt P20309); experiment: Functional mobilization of intracellular calcium (FLIPR), M3-CHO cells; conditions: for Emax: 100% efficacy = maximum response obtained with the Carbachol control; for M3 Activity: M3-CHO cells, calcium mobilization (FLIPR)
T3 construct: expressed in transfected cells; host or cells: CHO (M3-CHO)
Summary of the method: as §1

M4 muscarinic receptor = molecular target: T4, M4 muscarinic receptor (Homo sapiens, UniProt P08173); experiment: Functional mobilization of intracellular calcium (FLIPR), M4-CHO cells; conditions: for Emax: 100% efficacy = maximum response obtained with the Carbachol control; for M4 Activity: M4-CHO cells, calcium mobilization (FLIPR)
T4 construct: expressed in transfected cells; host or cells: CHO (M4-CHO)
T4 sequence (P08173 1-479): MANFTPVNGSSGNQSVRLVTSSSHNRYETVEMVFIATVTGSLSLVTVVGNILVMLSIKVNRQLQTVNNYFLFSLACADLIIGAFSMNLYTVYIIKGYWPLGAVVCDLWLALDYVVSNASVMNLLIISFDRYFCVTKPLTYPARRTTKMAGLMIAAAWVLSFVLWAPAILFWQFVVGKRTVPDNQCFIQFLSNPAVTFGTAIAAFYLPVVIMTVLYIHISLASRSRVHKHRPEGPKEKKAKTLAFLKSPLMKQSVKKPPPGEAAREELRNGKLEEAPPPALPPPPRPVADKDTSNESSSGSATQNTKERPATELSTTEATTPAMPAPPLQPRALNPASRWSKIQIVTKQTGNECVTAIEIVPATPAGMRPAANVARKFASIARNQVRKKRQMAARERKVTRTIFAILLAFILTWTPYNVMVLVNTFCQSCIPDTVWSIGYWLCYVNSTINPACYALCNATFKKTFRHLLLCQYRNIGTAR
Summary of the method: as §1

T3 sequence (P20309 whole entry): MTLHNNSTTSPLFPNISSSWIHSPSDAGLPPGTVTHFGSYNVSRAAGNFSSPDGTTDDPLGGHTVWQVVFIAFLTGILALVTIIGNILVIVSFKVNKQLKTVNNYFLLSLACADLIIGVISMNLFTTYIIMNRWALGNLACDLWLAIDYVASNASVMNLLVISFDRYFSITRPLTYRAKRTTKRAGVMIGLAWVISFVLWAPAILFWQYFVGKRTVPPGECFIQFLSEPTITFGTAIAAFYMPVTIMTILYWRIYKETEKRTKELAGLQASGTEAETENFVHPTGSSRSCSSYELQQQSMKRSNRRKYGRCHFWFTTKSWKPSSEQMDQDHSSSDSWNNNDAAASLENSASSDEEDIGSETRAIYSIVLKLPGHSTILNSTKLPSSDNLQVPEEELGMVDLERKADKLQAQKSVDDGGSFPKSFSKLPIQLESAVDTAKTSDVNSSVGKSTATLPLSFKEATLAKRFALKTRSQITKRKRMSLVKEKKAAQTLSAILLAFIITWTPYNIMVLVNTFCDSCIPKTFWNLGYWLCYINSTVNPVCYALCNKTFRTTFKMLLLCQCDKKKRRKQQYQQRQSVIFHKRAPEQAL

Row | Emax (M1 muscarinic receptor) | Emax (M2 muscarinic receptor) | Emax (M3 muscarinic receptor) | Emax (M4 muscarinic receptor) | SMILES | M1 Activity (M1 muscarinic receptor) | M2 Activity (M2 muscarinic receptor) | M3 Activity (M3 muscarinic receptor) | M4 Activity (M4 muscarinic receptor)
1 | 25 to 100% | < 25% | < 25% | 25 to 100% | COc1ccccc1C1CCN(C2CCC(C)CC2)CC1 (centres unmarked) [Compound 158] | + (activity was measured to be greater than 5.0 μM) | + (activity was measured to be greater than 5.0 μM) | + (activity was measured to be greater than 5.0 μM) | +++ (activity was measured to be less than 1.0 μM)
2 | 25 to 100% | < 25% | < 25% | 25 to 100% | COc1c(F)cc(F)cc1C1CCN([C@H]2C[C@H]3CC[C@H]2C3)CC1 [Compound 165] | + (activity was measured to be greater than 5.0 μM) | + (activity was measured to be greater than 5.0 μM) | + (activity was measured to be greater than 5.0 μM) | ++ (activity was measured to be from 1.0 μM to 5.0 μM)
3 | < 25% | < 25% | < 25% | 25 to 100% | COc1ccc(-c2ccccc2)cc1C1CCN([C@H]2C[C@H]3CC[C@H]2C3)CC1 [Compound 168] | + (activity was measured to be greater than 5.0 μM) | + (activity was measured to be greater than 5.0 μM) | + (activity was measured to be greater than 5.0 μM) | + (activity was measured to be greater than 5.0 μM)
4 | 25 to 100% | < 25% | < 25% | 25 to 100% | COc1ccccc1C1CCN(C2CC3CCC(C3)C2)CC1 (centres unmarked) [Compound 169] | ++ (activity was measured to be from 1.0 μM to 5.0 μM) | + (activity was measured to be greater than 5.0 μM) | + (activity was measured to be greater than 5.0 μM) | +++ (activity was measured to be less than 1.0 μM)
5 | < 25% | < 25% | < 25% | 25 to 100% | O=C(COc1ccccc1C1CCN([C@H]2C[C@H]3CC[C@H]2C3)CC1)c1ccccc1Cl [Compound 170] | + (activity was measured to be greater than 5.0 μM) | + (activity was measured to be greater than 5.0 μM) | + (activity was measured to be greater than 5.0 μM) | +++ (activity was measured to be less than 1.0 μM)
6 | < 25% | < 25% | < 25% | 25 to 100% | COc1ccc(-c2ccc(CC#N)cc2)cc1C1CCN(C2CC3CCC(C3)C2)CC1 (centres unmarked) [Compound 173] | + (activity was measured to be greater than 5.0 μM) | + (activity was measured to be greater than 5.0 μM) | + (activity was measured to be greater than 5.0 μM) | + (activity was measured to be greater than 5.0 μM)
7 | < 25% | < 25% | < 25% | < 25% | COc1ccccc1C1CCN(C2CCC(C3CCCCC3)CC2)CC1 (centres unmarked) [Compound 175] | + (activity was measured to be greater than 5.0 μM) | + (activity was measured to be greater than 5.0 μM) | + (activity was measured to be greater than 5.0 μM) | + (activity was measured to be greater than 5.0 μM)

More lines, now with the values behind:

Row | SMILES | Emax (M1 muscarinic receptor) | Emax (M2 muscarinic receptor) | Emax (M3 muscarinic receptor) | Emax (M4 muscarinic receptor) | M1 Activity (M1 muscarinic receptor) | M2 Activity (M2 muscarinic receptor) | M3 Activity (M3 muscarinic receptor) | M4 Activity (M4 muscarinic receptor)
8 | COc1ccc(F)cc1C1(OC)CCN(C[C@@H]2C[C@H]3C=C[C@H]2C3)CC1 [Compound 160] | 25 to 100% | < 25% | < 25% | 25 to 100% | + (activity was measured to be greater than 5.0 μM) | + (activity was measured to be greater than 5.0 μM) | + (activity was measured to be greater than 5.0 μM) | +++ (activity was measured to be less than 1.0 μM)
9 | COc1ccc(Cl)cc1C1(F)CCN(C2CCCCCC2)CC1 [Compound 161] | 25 to 100% | 25 to 100% | < 25% | 25 to 100% | + (activity was measured to be greater than 5.0 μM) | + (activity was measured to be greater than 5.0 μM) | + (activity was measured to be greater than 5.0 μM) | + (activity was measured to be greater than 5.0 μM)
10 | COc1ccc(F)cc1C1CCN(CC2CCOCC2)CC1 [Compound 163] | 25 to 100% | < 25% | < 25% | 25 to 100% | + (activity was measured to be greater than 5.0 μM) | + (activity was measured to be greater than 5.0 μM) | + (activity was measured to be greater than 5.0 μM) | +++ (activity was measured to be less than 1.0 μM)
11 | COc1ccc(F)cc1C1CCN(C[C@@H]2C[C@H]3C=C[C@H]2C3)CC1 [Compound 167] | 25 to 100% | < 25% | < 25% | 25 to 100% | ++ (activity was measured to be from 1.0 μM to 5.0 μM) | + (activity was measured to be greater than 5.0 μM) | + (activity was measured to be greater than 5.0 μM) | +++ (activity was measured to be less than 1.0 μM)
12 | Cc1ccccc1C1(O)CCN(CC2CC3C=CC2C3)CC1 (centres unmarked) [Compound 171] | 25 to 100% | < 25% |  | 25 to 100% | ++ (activity was measured to be from 1.0 μM to 5.0 μM) | + (activity was measured to be greater than 5.0 μM) | + (activity was measured to be greater than 5.0 μM) | +++ (activity was measured to be less than 1.0 μM)
13 | COc1ccc(Cl)c(C2CCN(C3C[C@H]4CC[C@H]3C4)CC2)c1 (some centres unmarked) [Compound 174] | < 25% | < 25% | < 25% | < 25% | + (activity was measured to be greater than 5.0 μM) | + (activity was measured to be greater than 5.0 μM) | + (activity was measured to be greater than 5.0 μM) | + (activity was measured to be greater than 5.0 μM)
14 | COc1ccc(F)cc1C1CCN(C2CCCCCC2)CC1 [Compound 176] | 25 to 100% | 25 to 100% | < 25% | 25 to 100% | +++ (activity was measured to be less than 1.0 μM) | ++ (activity was measured to be from 1.0 μM to 5.0 μM) | + (activity was measured to be greater than 5.0 μM) | +++ (activity was measured to be less than 1.0 μM)
15 | CCOC(=O)N1CCC(CN2CCC(c3cc(OC)cc(F)c3F)CC2)CC1 [Compound 177] | 25 to 100% | < 25% | < 25% | 25 to 100% | +++ (activity was measured to be less than 1.0 μM) | + (activity was measured to be greater than 5.0 μM) | + (activity was measured to be greater than 5.0 μM) | +++ (activity was measured to be less than 1.0 μM)
